# Data reported in US10351718B2, “Optical filter and imaging device” (AGC Inc., priority 2015, dated 2019).
# Test: Absorption characteristic of the dye in dichloromethane
# Type: physicochemical
# Conditions: for λ80 (wavelength with 80% transmittance on shorter wavelength side of λmax) / λmax − λ80: dichloromethane, transmittance at λmax set to 10%; for εA (maximum absorption coefficient in a wavelength of 430 to 550 nm) / εB (maximum absorption coefficient in a wavelength of 670 to 730 nm) / εB/εA / λmax (maximum absorption wavelength): dissolved in dichloromethane
# Experimental: The dyes obtained above were each dissolved in dichloromethane, and using an ultraviolet-visible spectrophotometer (made by Hitachi High Technologies Co., Ltd., U-4100 type), each spectral transmittance curve was measured, from which a maximum absorption wavelength λmax, a wavelength λ80 with which the transmittance becomes 80% on a shorter wavelength side than the maximum absorption wavelength with the transmittance at the maximum absorption wavelength set to 10%, the difference between the maximum absorption wavelength λmax and the wavelength λ80 (λmax−λ80), a maximum absorption coefficient εA in a wavelength of 430 to 550 nm, a maximum absorption coefficient εB in a wavelength of 670 to 730 nm, and a ratio of these (εB/εA) were calculated. Note that measurement of the dye (A9) was not performed because its solubility was low. Further, for each of the following spectral transmittance curves, an ultraviolet-visible spectrophotometer (made by Hitachi High Technologies Co., Ltd., U-4100 type) was used.
Structure (SMILES),λ80 (wavelength with 80% transmittance on shorter wavelength side of λmax),λmax − λ80,εA (maximum absorption coefficient in a wavelength of 430 to 550 nm),εB (maximum absorption coefficient in a wavelength of 670 to 730 nm),εB/εA,λmax (maximum absorption wavelength)
CC(C)N1c2cc(N3S(=O)(=O)C(F)(F)C(F)(F)S3(=O)=O)c(C3=C([O-])C(=c4cc5c(cc4N4S(=O)(=O)C(F)(F)C(F)(F)S4(=O)=O)=[N+](C(C)C)C(C)C5(C)C)C3=O)cc2C(C)(C)C1C (stereo not drawn) [Dye A1-20],651 nm,52 nm,0.0100,1,100,703 nm
CCCCCCCCS(=O)(=O)Nc1cc2c(cc1C1=C([O-])C(=c3cc4c(cc3NS(=O)(=O)CCCCCCCC)=[N+](C(C)C)C(C)(C)C4(C)C)C1=O)C(C)(C)C(C)(C)N2C(C)C [Dye A1-24],651 nm,49 nm,0.0110,1,89.7,700 nm
CCCS(=O)(=O)Nc1cc2c(cc1C1=C([O-])C(=c3cc4c(cc3NS(=O)(=O)CCC)=[N+](C(C)C)C(C)C4(C)C)C1=O)C(C)(C)C(C)N2C(C)C (stereo not drawn) [Dye A1-13],645 nm,53 nm,0.0113,1,88.5,698 nm
Cc1ccccc1S(=O)(=O)Nc1cc2c(cc1C1=C([O-])C(=c3cc4c(cc3NS(=O)(=O)c3ccccc3C)=[N+](C(C)C)C(C)C4(C)C)C1=O)C(C)(C)C(C)N2C(C)C (stereo not drawn) [Dye A1-18],649 nm,50 nm,0.0110,1,90.9,699 nm
CCCCCCCCS(=O)(=O)Nc1cc2c(cc1C1=C([O-])C(=c3cc4c(cc3NS(=O)(=O)CCCCCCCC)=[N+](C(C)C)C(C)(CC)C4(C)C)C1=O)C(C)(C)C(C)(CC)N2C(C)C (stereo not drawn) [Dye A1-25],653 nm,51 nm,0.0130,1,77.6,704 nm
CC1N(C)c2cc(NS(=O)(=O)C(F)(F)C(F)(F)C(F)(F)C(F)(F)F)c(C3=C([O-])C(=c4cc5c(cc4NS(=O)(=O)C(F)(F)C(F)(F)C(F)(F)C(F)(F)F)=[N+](C)C(C)C5(C)C)C3=O)cc2C1(C)C (stereo not drawn) [Dye A1-3],637 nm,61 nm,0.0065,1,154,698 nm
CCC(C)(C)N1c2cc(NS(=O)(=O)C(F)(F)F)c(C3=C([O-])C(=c4cc5c(cc4NS(=O)(=O)C(F)(F)F)=[N+](C(C)(C)CC)C(C)C5(C)C)C3=O)cc2C(C)(C)C1C (stereo not drawn) [Dye A1-22],660 nm,51 nm,0.0122,1,82.0,711 nm
CC(C)N1c2cc(NS(=O)(=O)C(F)(F)C(F)(F)C(F)(F)C(F)(F)F)c(C3=C([O-])C(=c4cc5c(cc4NS(=O)(=O)C(F)(F)C(F)(F)C(F)(F)C(F)(F)F)=[N+](C(C)C)C(C)C5(C)C)C3=O)cc2C(C)(C)C1C (stereo not drawn) [Dye A1-17],653 nm,52 nm,0.0081,1,123,705 nm
CCCc1ccc(S(=O)(=O)Nc2cc3c(cc2C2=C([O-])C(=c4cc5c(cc4NS(=O)(=O)c4ccc(CCC)cc4)=[N+](C)C(C)C5(C)C)C2=O)C(C)(C)C(C)N3C)cc1 (stereo not drawn) [Dye A1-6],633 nm,60 nm,0.0139,1,71.9,693 nm
CCCCCc1ccc(S(=O)(=O)Nc2cc3c(cc2C2=C([O-])C(=c4cc5c(cc4NS(=O)(=O)c4ccc(CCCCC)cc4)=[N+](C(C)C)C(C)C5(C)C)C2=O)C(C)(C)C(C)N3C(C)C)cc1 (stereo not drawn) [Dye A1-19],648 nm,51 nm,0.0126,1,79.4,699 nm
CCCCCc1ccc(S(=O)(=O)Nc2cc3c(cc2C2=C([O-])C(=c4cc5c(cc4NS(=O)(=O)c4ccc(CCCCC)cc4)=[N+](C)C(C)C5(C)C)C2=O)C(C)(C)C(C)N3C)cc1 (stereo not drawn) [Dye A1-7],633 nm,60 nm,0.0147,1,68.0,693 nm
Cc1ccc(S(=O)(=O)Nc2cc3c(cc2C2=C([O-])C(=c4cc5c(cc4NS(=O)(=O)c4ccc(C)cc4)=[N+](C(C)C)C(C)C5(C)C)C2=O)C(C)(C)C(C)N3C(C)C)cc1 (stereo not drawn) [Dye A1-12],648 nm,52 nm,0.0116,1,86.2,700 nm
CC1N(C)c2cc(NS(=O)(=O)c3ccccc3C(F)(F)F)c(C3=C([O-])C(=c4cc5c(cc4NS(=O)(=O)c4ccccc4C(F)(F)F)=[N+](C)C(C)C5(C)C)C3=O)cc2C1(C)C (stereo not drawn) [Dye A1-4],633 nm,62 nm,0.0104,1,96.2,695 nm
CCC(C)(C)N1c2cc(NS(=O)(=O)C(F)(F)C(F)(F)C(F)(F)C(F)(F)F)c(C3=C([O-])C(=c4cc5c(cc4NS(=O)(=O)C(F)(F)C(F)(F)C(F)(F)C(F)(F)F)=[N+](C(C)(C)CC)C(C)C5(C)C)C3=O)cc2C(C)(C)C1C (stereo not drawn) [Dye A1-23],663 nm,50 nm,0.0124,1,80.6,713 nm
CCCCCCCCS(=O)(=O)Nc1cc2c(cc1C1=C([O-])C(=c3cc4c(cc3NS(=O)(=O)CCCCCCCC)=[N+](C(C)C)C(C)(C(C)C)C4(C)C)C1=O)C(C)(C)C(C)(C(C)C)N2C(C)C (stereo not drawn) [Dye A1-26],654 nm,53 nm,0.0140,1,71.6,707 nm
